The results in this text go back to patent US8163728B2, “Pyrazoles” (Hoffmann-La Roche Inc., priority 2009, dated 2012).

This assay has as its target T1, GABA A α5 (Homo sapiens, UniProt P18507+P31644).
T1 construct: expressed in transfected cells; host or cells: HEK293 cells, transiently transfected; membranes prepared from cell pellets
Kind of assay: [3H]flumazenil competition binding, human GABA A α5β3γ2 receptors in HEK293 cell membranes. The note with it: human receptor α5β3γ2 transiently transfected in HEK293; 0.5 nM [3H]flumazenil; 1 hour at 4° C.; means of two determinations; read-out: hKi GABA A α5. Put shortly: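 Competition with [3H]flumazenil for binding to membranes of HEK293 cells transiently expressing human α5β3γ2, in Krebs-tris buffer pH 7.5. Incubated to equilibrium 1 h at 4 °C, filtered and scintillation-counted; Ki values are means of two determinations.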

On to `Cc1onc(-c2ccc(F)cn2)c1CNc1cc(C(=O)NC2CC2)n(C)n1` [Example 165, N-Cyclopropyl-3-((3-(5-fluoropyridin-2-yl)-5-methylisoxazol-4-yl)methylamino)-1-methyl-1H-pyrazole-5-carboxamide], for which the Ki is 41.1 nM.
`CCNC(=O)c1cc(/C=C/c2c(-c3ccc(F)cc3)noc2C)n[nH]1` [Example 141, 5-{(E)-2-[3-(4-Fluoro-phenyl)-5-methyl-isoxazol-4-yl]vinyl}-2H-pyrazole-3-carboxylic acid ethylamide]: the Ki stood at 8.1 nM.
The figure for `Cc1onc(-c2ccc(F)cc2)c1COc1cc(C(=O)N[C@H]2CCC[C@@H]2O)n(C)n1` [Example 73, (+5-[3-(4-Fluoro-phenyl)-5-methyl-isoxazol-4-ylmethoxy]-2-methyl-2H-pyrazole-3-carboxylic acid ((1R,2R)-2-hydroxy-cyclopentyl)-amideand/or 5-[3-(4-Fluoro-phenyl)-5-methyl-isoxazol-4-ylmethoxy]-2-methyl-2H-pyrazole-3-carboxylic acid ((18,28)-2-hydroxy-cyclopentyl)-amide] is 9.4 nM.
The figure for `CCCCc1noc(C)c1COc1cc(C(=O)NN(C)C)[nH]n1` [Example 38, 5-(3-Butyl-5-methyl-isoxazol-4-ylmethoxy)-2H-pyrazole-3-carboxylic acid N′,N′-dimethylhydrazide] is 38.7 nM; for `Cc1onc(-c2ccccc2)c1COc1cc(C(N)=O)n(C)n1` [Example 45, 2-Methyl-5-(5-methyl-3-phenyl-isoxazol-4-ylmethoxy)-2H-pyrazole-3-carboxylic acid amide] it is 47.3 nM; for `Cc1onc(-c2ccc(F)cc2)c1/C=C/c1cc(C(=O)NCC(C)(C)O)n(C)n1` [Example 124, 5-{(E)-2-[3-(4-Fluoro-phenyl)-5-methyl-isoxazol-4-yl]vinyl}-2-methyl-2H-pyrazole-3-carboxylic acid (2-hydroxy-2-methyl-propyl)-amide] it is 2 nM.
The figure for `Cn1nc(OCc2c(-c3ccc(Cl)cc3)noc2CO)cc1C(=O)NC1CCOCC1` [Example 101, 5-[3-(4-Chloro-phenyl)-5-hydroxymethyl-isoxazol-4-ylmethoxy]-2-methyl-2H-pyrazole-3-carboxylic acid (tetrahydro-pyran-4-yl)-amide] is 0.9 nM; for `Cc1onc(-c2ccc(F)cn2)c1COc1cc(C(=O)NC2CCOC2)n(C)n1` (racemic) [Example 81, Rac-5-[3-(5-fluoro-pyridin-2-yl)-5-methyl-isoxazol-4-ylmethoxy]-2-methyl-2H-pyrazole-3-carboxylic acid (tetrahydro-furan-3-yl)-amide] it is 5.9 nM; for `Cn1nc(OCc2c(-c3ccc(F)cc3)noc2CO)cc1C(N)=O` [Example 93, 5-[3-(4-Fluoro-phenyl)-5-hydroxymethyl-isoxazol-4-ylmethoxy]-2-methyl-2H-pyrazole-3-carboxylic acid amide] it is 14.7 nM.
In the case of `Cc1onc(-c2ccc(F)cn2)c1COc1cc(C(=O)NC2CCOCC2)n(C)n1` [Example 84, 5-[3-(5-Fluoro-pyridin-2-yl)-5-methyl-isoxazol-4-ylmethoxy]-2-methyl-2H-pyrazole-3-carboxylic acid (tetrahydro-pyran-4-yl)-amide], the Ki amounted to 3.5 nM.
Regarding `Cc1onc(-c2ccc(F)cc2)c1COc1cc(C(=O)NN(C)C)n(C)n1` [Example 48, 5-[3-(4-Fluoro-phenyl)-5-methyl-isoxazol-4-ylmethoxy]-2-methyl-2H-pyrazole-3-carboxylic acid N′,N′-dimethyl-hydrazide], the Ki turned out to be 23.3 nM.
As for `Cc1onc(-c2ccccn2)c1COc1cc(C(=O)NC(C)C)nn1C` [Example 115, 1-Methyl-5-(5-methyl-3-pyridin-2-yl-isoxazol-4-ylmethoxy)-1H-pyrazole-3-carboxylic acid isopropylamide], the Ki was found to be 20.5 nM.
The figure for `CCCCc1noc(C)c1COc1cc(C(=O)NC2CCOC2)n(C)n1` (racemic) [Example 89, Rac-5-(3-Butyl-5-methyl-isoxazol-4-ylmethoxy)-2-methyl-2H-pyrazole-3-carboxylic acid (tetrahydro-furan-3-yl)-amide] is 20.3 nM; for `Cc1onc(-c2ccc(F)cc2)c1/C=C/c1cc(C(=O)NCC(F)(F)F)n(C)n1` [Example 128, 5-{(E)-2-[3-(4-Fluoro-phenyl)-5-methyl-isoxazol-4-yl]vinyl}-2-methyl-2H-pyrazole-3-carboxylic acid (2,2,2-trifluoro-ethyl)-amide] it is 1.2 nM; for `CCNC(=O)c1cc(NCc2c(-c3ccc(F)cc3)noc2C)n[nH]1` [Example 155, 5-{[3-(4-Fluoro-phenyl)-5-methyl-isoxazol-4-ylmethyl]-amino}-2H-pyrazole-3-carboxylic acid ethylamide] it is 57.1 nM.
